Test results reported in ChEMBL document CHEMBL1201862, “PubChem BioAssay data set” (2004).
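Following 48 hours of exposure in 96-well plates, responses at five concentrations were used to interpolate endpoints linearly. GI50: concentration for 50% inhibition of growth.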 Activity calls are given as the source filed them. Cut-off read from the data, not from the text of the source: active = GI50 up to about 1.1 µM and inactive = higher.

Assays:
Assay in all cases: inhibition of tumour cell growth, NCI panel, 48 h
SR = test system: SR
MOLT-4 = test system: MOLT-4
SF-268 = test system: SF-268
TK-10 = test system: TK-10
HL-60 = test system: HL-60
K562 = test system: K562
SNB-19 = test system: SNB-19
PC-3 = test system: PC-3
KM12 = test system: KM12
NCI/ADR-RES = test system: NCI/ADR-RES
MDA-MB-435 = test system: MDA-MB-435
MDA-MB-231 = test system: MDA-MB-231
MDA-N = test system: MDA-N
NCI-H23 = test system: NCI-H23
DU-145 = test system: DU-145
HCT-116 = test system: HCT-116
NCI-H522 = test system: NCI-H522
UACC-62 = test system: UACC-62
MCF7 = test system: MCF7
SNB-75 = test system: SNB-75
SK-MEL-2 = test system: SK-MEL-2
IGROV-1 = test system: IGROV-1
HT-29 = test system: HT-29
NCI-H460 = test system: NCI-H460
A549 = test system: A549
786-0 = test system: 786-0
LOX IMVI = test system: LOX IMVI
Malme-3M = test system: Malme-3M
U-251 = test system: U-251
EKVX = test system: EKVX
A498 = test system: A498
Hs-578T = test system: Hs-578T
HCC 2998 = test system: HCC 2998
SW-620 = test system: SW-620
RPMI-8226 = test system: RPMI-8226
SK-OV-3 = test system: SK-OV-3
NCI-H226 = test system: NCI-H226
COLO 205 = test system: COLO 205
OVCAR-5 = test system: OVCAR-5
M14 = test system: M14
SK-MEL-28 = test system: SK-MEL-28
BT-549 = test system: BT-549
ACHN = test system: ACHN
UACC-257 = test system: UACC-257
SF-295 = test system: SF-295
OVCAR-4 = test system: OVCAR-4
SN12C = test system: SN12C
RXF 393 = test system: RXF 393
HOP-92 = test system: HOP-92
SK-MEL-5 = test system: SK-MEL-5
CAKI-1 = test system: CAKI-1
HOP-62 = test system: HOP-62
UO-31 = test system: UO-31
T47D = test system: T47D
OVCAR-3 = test system: OVCAR-3
HCT-15 = test system: HCT-15
OVCAR-8 = test system: OVCAR-8
SF-539 = test system: SF-539

Compound: Cc1cn([C@H]2C[C@](C)(CO)N(C)O2)c(=O)[nH]c1=O
- GI50 (SR): > 100 µM (inactive)
- GI50 (MOLT-4): > 100 µM (inactive)
- GI50 (SF-268): > 100 µM (inactive)
- GI50 (TK-10): > 100 µM (inactive)
- GI50 (HL-60): > 100 µM (inactive)
- GI50 (K562): > 100 µM (inactive)
- GI50 (SNB-19): > 100 µM (inactive)
- GI50 (PC-3): > 100 µM (inactive)
- GI50 (KM12): > 100 µM (inactive)
- GI50 (NCI/ADR-RES): > 100 µM (inactive)
- GI50 (MDA-MB-435): > 100 µM (inactive)
- GI50 (MDA-MB-231): > 100 µM (inactive)
- GI50 (MDA-N): > 100 µM (inactive)
- GI50 (NCI-H23): > 100 µM (inactive)
- GI50 (DU-145): > 100 µM (inactive)
- GI50 (HCT-116): > 100 µM (inactive)
- GI50 (NCI-H522): > 100 µM (inactive)
- GI50 (UACC-62): > 100 µM (inactive)
- GI50 (MCF7): > 100 µM (inactive)
- GI50 (SNB-75): > 100 µM (inactive)
- GI50 (SK-MEL-2): > 100 µM (inactive)
- GI50 (IGROV-1): > 100 µM (inactive)
- GI50 (HT-29): > 100 µM (inactive)
- GI50 (NCI-H460): > 100 µM (inactive)
- GI50 (A549): > 100 µM (inactive)
- GI50 (786-0): > 100 µM (inactive)
- GI50 (LOX IMVI): > 100 µM (inactive)
- GI50 (Malme-3M): > 100 µM (inactive)
- GI50 (U-251): > 100 µM (inactive)
- GI50 (EKVX): > 100 µM (inactive)
- GI50 (A498): > 100 µM (inactive)
- GI50 (Hs-578T): > 100 µM (inactive)
- GI50 (HCC 2998): > 100 µM (inactive)
- GI50 (SW-620): > 100 µM (inactive)
- GI50 (RPMI-8226): > 100 µM (inactive)
- GI50 (SK-OV-3): > 100 µM (inactive)
- GI50 (NCI-H226): > 100 µM (inactive)
- GI50 (COLO 205): > 100 µM (inactive)
- GI50 (OVCAR-5): > 100 µM (inactive)
- GI50 (M14): > 100 µM (inactive)
- GI50 (SK-MEL-28): > 100 µM (inactive)
- GI50 (BT-549): > 100 µM (inactive)
- GI50 (ACHN): > 100 µM (inactive)
- GI50 (UACC-257): > 100 µM (inactive)
- GI50 (SF-295): > 100 µM (inactive)
- GI50 (OVCAR-4): > 100 µM (inactive)
- GI50 (SN12C): > 100 µM (inactive)
- GI50 (RXF 393): > 100 µM (inactive)
- GI50 (HOP-92): > 100 µM (inactive)
- GI50 (SK-MEL-5): > 100 µM (inactive)
- GI50 (CAKI-1): > 100 µM (inactive)
- GI50 (HOP-62): > 100 µM (inactive)
- GI50 (UO-31): > 100 µM (inactive)
- GI50 (T47D): > 100 µM (inactive)

Compound: O=C(/C=C/c1cccc(Oc2ccccc2)c1)NCc1ccc(C(=O)NCCc2ccccc2)cc1
- GI50 (SR): > 100 µM (inactive)
- GI50 (MOLT-4): > 100 µM (inactive)
- GI50 (SF-268): 33.5 µM (inactive)
- GI50 (TK-10): > 100 µM (inactive)
- GI50 (K562): > 100 µM (inactive)
- GI50 (OVCAR-3): > 100 µM (inactive)
- GI50 (SNB-19): 29.9 µM (inactive)
- GI50 (PC-3): > 100 µM (inactive)
- GI50 (HCT-15): > 100 µM
- GI50 (KM12): > 100 µM (inactive)
- GI50 (NCI/ADR-RES): > 100 µM (inactive)
- GI50 (MDA-MB-435): > 100 µM (inactive)
- GI50 (MDA-MB-231): 82.4 µM (inactive)
- GI50 (MDA-N): > 100 µM (inactive)
- GI50 (NCI-H23): 43.7 µM (inactive)
- GI50 (DU-145): > 100 µM (inactive)
- GI50 (HCT-116): > 100 µM (inactive)
- GI50 (NCI-H522): 75 µM (inactive)
- GI50 (UACC-62): > 100 µM (inactive)
- GI50 (MCF7): > 100 µM (inactive)
- GI50 (SNB-75): 29.4 µM (inactive)
- GI50 (SK-MEL-2): > 100 µM (inactive)
- GI50 (IGROV-1): > 100 µM (inactive)
- GI50 (HT-29): 16.9 µM (inactive)
- GI50 (NCI-H460): > 100 µM (inactive)
- GI50 (A549): > 100 µM (inactive)
- GI50 (786-0): 24.1 µM (inactive)
- GI50 (LOX IMVI): > 100 µM (inactive)
- GI50 (OVCAR-8): 24.8 µM (inactive)
- GI50 (Malme-3M): > 100 µM (inactive)
- GI50 (U-251): 35 µM (inactive)
- GI50 (EKVX): > 100 µM (inactive)
- GI50 (A498): > 100 µM (inactive)
- GI50 (Hs-578T): > 100 µM (inactive)
- GI50 (HCC 2998): > 100 µM (inactive)
- GI50 (SW-620): > 100 µM (inactive)
- GI50 (RPMI-8226): > 100 µM (inactive)
- GI50 (SK-OV-3): > 100 µM (inactive)
- GI50 (NCI-H226): > 100 µM (inactive)
- GI50 (COLO 205): > 100 µM (inactive)
- GI50 (OVCAR-5): > 100 µM (inactive)
- GI50 (M14): > 100 µM (inactive)
- GI50 (SF-539): 14.8 µM (inactive)
- GI50 (SK-MEL-28): > 100 µM (inactive)
- GI50 (BT-549): > 100 µM (inactive)
- GI50 (ACHN): > 100 µM (inactive)
- GI50 (UACC-257): > 100 µM (inactive)
- GI50 (SF-295): > 100 µM (inactive)
- GI50 (OVCAR-4): 58.5 µM (inactive)
- GI50 (SN12C): > 100 µM (inactive)
- GI50 (RXF 393): 20 µM (inactive)
- GI50 (HOP-92): > 100 µM (inactive)
- GI50 (SK-MEL-5): > 100 µM (inactive)
- GI50 (CAKI-1): > 100 µM (inactive)
- GI50 (HOP-62): 27.2 µM (inactive)
- GI50 (UO-31): > 100 µM (inactive)
- GI50 (T47D): > 100 µM (inactive)
